Legend:
[1] = system: anterior segment of the eye; assay: Ocular Irritation Test-2: McDonald-Shadduck method, lens observation, histopathological examination; assay type: in vivo, Japanese White rabbit; parameters: key to Irritation Score of anterior segment of the eye: Discharge / Irritation Score of anterior segment of the eye: Anterior chamber flare / Irritation Score of anterior segment of the eye: Light reflex / Irritation Score of anterior segment of the eye: Iris / Irritation Score of anterior segment of the eye: Corneal opacity / Irritation Score of anterior segment of the eye: Angiogenesis / Irritation Score of anterior segment of the eye: Corneal epithelial disorder / Lens / Histopathological examination of the eye / Irritation Score of anterior segment of the eye: Conjunctival hyperemia / Irritation Score of anterior segment of the eye: Conjunctival edema: +0.5: very slight; +1: slight; +2: moderate; +3: severe; —: No noteworthy findings; details: for Histopathological examination of the eye / Irritation Score of anterior segment of the eye: Angiogenesis / Irritation Score of anterior segment of the eye: Anterior chamber flare / Irritation Score of anterior segment of the eye: Conjunctival edema / Irritation Score of anterior segment of the eye: Conjunctival hyperemia / Irritation Score of anterior segment of the eye: Corneal epithelial disorder / Irritation Score of anterior segment of the eye: Corneal opacity / Irritation Score of anterior segment of the eye: Discharge / Irritation Score of anterior segment of the eye: Iris / Irritation Score of anterior segment of the eye: Light reflex / Lens: 50 μL/eye twice per day for 2 weeks
Experimental: Compound 1 was stirred with the addition of Vehicle C to give a 0.3% (w/v) solution, and the resulting solution was diluted with Vehicle C to give a 0.1% (w/v) solution. Further, the resulting 0.1% (w/v) solution was diluted with. Vehicle C to give a 0.03% (w/v) solution.
0.03% (w/v), 0.1% (w/v), and 0.3% (w/v) Compound 1 eye drops were each instilled into the left eye of a Japanese White rabbit at a dose of 50 μL/eye with pipette twice per day at a 6-hour interval for 2 weeks. One hour after the final instillation, ocular irritation of anterior segment of the eye was evaluated using a slit lamp according to the McDonald-Shadduck method, and the lens was observed. At the end of the treatment period, histopathological examination of the eye was performed. The contralateral eye was untreated.
The ocular irritation of anterior segment of the eye was scored according to the following criteria:
+1: slight; +2: moderate; +3: severe.

[2] = system: lens elasticity; assay: Pharmacological Test-3: lens elasticity, Compounds 5 and 6, 3 times per day for 14 days; assay type: in vivo,  mice
Experimental: The effects of Compounds 5 and 6 on the lens elasticity were investigated.
Compound 5 was stirred with the addition of Vehicle C to give a 0.03% (w/v) solution.
Compound 6 was stirred with the addition of Vehicle C to give a 0.03% (w/v) solution.
EV06 was stirred with the addition of Vehicle C to give a 0.03% (w/v) solution, which was used for comparison to the samples of Compounds 5 and 6.
1) Each test sample (2.5 μL/eye) was instilled into both eyes of 9-month-old […] mice with a Pipetman 3 times per day (around 9:00, 13:00 and 17:00) for 14 days. 2) After the final instillation, the mice were euthanized by carbon dioxide inhalation, and then the eyeballs were extracted and rinsed with Hank's balanced salt solution (HESS). 3) The sclera near the optic nerve was cut with a razor, the lens was removed through the incision, and the removed lens was immersed in HESS. 4) The lens was placed on a glass slide, and an all-in-one fluorescence microscope BZ-9000 (Keyence) was used to capture an image of the lens (Image a). 5) Next, one cover glass (Corning^(registered trade mark) 22×22 mm Square) was placed on the lens, and an image in which the thickness of the lens changed due to the weight was similarly captured (Image b). 6) A change in the lens diameter was calculated from the following Equation 1 wherein the lens diameter of Image a is subtracted from the lens diameter of Image b. Then, the lens elasticity improvement of each sample group compared with the vehicle control group was calculated from Equation 2 described below. The mean value of the vehicle control group was based on 8 eyes, and the mean value of each of the sample groups of Compounds 5 and 6 and EV06 was based on 10 eyes.
Change in lens diameter=Lens diameter in Image b of each test sample−Lens diameter in Image a of each test sample (Equation 1)
Lens elasticity improvement of each sample group=Mean change in lens diameter of each Test sample group−Mean change in lens diameter of Vehicle control group (Equation 2)

CC(C)=CCOC(=O)CCCC[C@@H]1CCSS1 [Compound 1, 3-Methyl-2-buten-1-yl (R)-5-(1,2-dithiolan-3-yl)pentanoate]
Histopathological examination of the eye ([1]; 0.03% eye drop): — | Irritation Score of anterior segment of the eye: Angiogenesis ([1]; 0.03% eye drop): — | Irritation Score of anterior segment of the eye: Anterior chamber flare ([1]; 0.03% eye drop): — | Irritation Score of anterior segment of the eye: Conjunctival edema ([1]; 0.03% eye drop): — | Irritation Score of anterior segment of the eye: Conjunctival hyperemia ([1]; 0.03% eye drop): — | Irritation Score of anterior segment of the eye: Corneal epithelial disorder ([1]; 0.03% eye drop): — | Irritation Score of anterior segment of the eye: Corneal opacity ([1]; 0.03% eye drop): — | Irritation Score of anterior segment of the eye: Discharge ([1]; 0.03% eye drop): — | Irritation Score of anterior segment of the eye: Iris ([1]; 0.03% eye drop): — | Irritation Score of anterior segment of the eye: Light reflex ([1]; 0.03% eye drop): — | Lens ([1]; 0.03% eye drop): — | ocular irritation ([1]; 0.03%, 0.1% and 0.3% eye drops, twice per day for 2 weeks): No ocular irritation was observed | Histopathological examination of the eye ([1]; 0.1% eye drop): — | Irritation Score of anterior segment of the eye: Angiogenesis ([1]; 0.1% eye drop): — | Irritation Score of anterior segment of the eye: Anterior chamber flare ([1]; 0.1% eye drop): — | Irritation Score of anterior segment of the eye: Conjunctival edema ([1]; 0.1% eye drop): — | Irritation Score of anterior segment of the eye: Conjunctival hyperemia ([1]; 0.1% eye drop): — | Irritation Score of anterior segment of the eye: Corneal epithelial disorder ([1]; 0.1% eye drop): — | Irritation Score of anterior segment of the eye: Corneal opacity ([1]; 0.1% eye drop): — | Irritation Score of anterior segment of the eye: Discharge ([1]; 0.1% eye drop): — | Irritation Score of anterior segment of the eye: Iris ([1]; 0.1% eye drop): — | Irritation Score of anterior segment of the eye: Light reflex ([1]; 0.1% eye drop): — | Lens ([1]; 0.1% eye drop): — | Histopathological examination of the eye ([1]; 0.3% eye drop): — | Irritation Score of anterior segment of the eye: Angiogenesis ([1]; 0.3% eye drop): — | Irritation Score of anterior segment of the eye: Anterior chamber flare ([1]; 0.3% eye drop): — | Irritation Score of anterior segment of the eye: Conjunctival edema ([1]; 0.3% eye drop): — | Irritation Score of anterior segment of the eye: Conjunctival hyperemia ([1]; 0.3% eye drop): — | Irritation Score of anterior segment of the eye: Corneal epithelial disorder ([1]; 0.3% eye drop): — | Irritation Score of anterior segment of the eye: Corneal opacity ([1]; 0.3% eye drop): — | Irritation Score of anterior segment of the eye: Discharge ([1]; 0.3% eye drop): — | Irritation Score of anterior segment of the eye: Iris ([1]; 0.3% eye drop): — | Irritation Score of anterior segment of the eye: Light reflex ([1]; 0.3% eye drop): — | Lens ([1]; 0.3% eye drop): —

C[N+](C)(C)CCOC(=O)CCCC[C@@H]1CCSS1.[Cl-] [EV06, Lipoic acid choline ester, reference compound]
Lens elasticity improvement ([2]; 0.03% (w/v) solution in Vehicle C, both eyes, 3 times per day for 14 days, 9-month-old mice): 3.6 μm | lens elasticity improving effect ([2]; at a concentration of 0.03%): did not show lens elasticity improving effect

Reference: patent publication US20220151989A1, “LIPOIC ACID PRODRUG” (SANTEN PHARMACEUTICAL CO., LTD., priority 2019, published 2022)
